Results taken from patent US20050069522A1, “Combination pharmaceutical agents as inhibitors of HCV replication” (priority 2002, published 2005).

Each compound was assayed on HCV replicon (HCV 1b-377-neo replicon cells) (assay: HCV replicon cell line FRET assay). Settings: Hepatitis C virus; HCV replicon cell line, FRET assay; read-out: Replicon Inhibition Range EC50.
Type: cell-based

Q: Which EC50 does the source give for `O=C(Nc1ccc(C2S/C(=N\c3cccc(F)c3)N(Cc3ccco3)C2=O)cc1)[C@@H]1CCCN1C(=O)OCc1ccccc1` (stereo partly drawn) [Compound 2, 2S-{4-[2-(3-fluorophenylimino)-3-furan-2ylmethyl-4-oxo-thiazolidin-5yl]-phenylcarbamoyl}pyrrolidine-1-carboxylic acid benzyl ester] here?
A: > 5000 nM

Q: With `O=C(Nc1ccc(C2S/C(=N\c3cccc(F)c3)N(Cc3ccccn3)C2=O)cc1)[C@@H]1CCCN1C(=O)OCc1ccccc1` (stereo partly shown) [Compound 3] as the compound, how does the EC50 read?
A: < 100 nM

Q: For `C[C@H](NC(=O)OCc1ccccc1)C(=O)Nc1ccc(C2S/C(=N\c3cccc(F)c3)N(Cc3ccccn3)C2=O)cc1` (stereo partly shown) [Compound 4], which EC50 is on record?
A: < 100 nM

Q: How did the EC50 turn out when `Cc1cnc(CN2C(=O)C(c3ccc(NC(=O)[C@@H]4CCCN4C(=O)OCc4ccccc4)cc3)S/C2=N\c2cccc(F)c2)cn1` (stereo partly shown) [Compound 5] was run?
A: < 100 nM

Q: With `Cc1cnc(CN2C(=O)C(c3ccc(NC(=O)[C@H](C)NC(=O)OCc4ccccc4)cc3)S/C2=N\c2cccc(F)c2)cn1` (stereo partly shown) [Compound 6] as the compound, how does the EC50 read?
A: < 100 nM

Q: For `O=C(Nc1ccc(C2S/C(=N\c3ccc(N4CCOCC4)cc3)N(Cc3ccco3)C2=O)cc1)[C@@H]1CCCN1C(=O)OCc1ccccc1` (stereo partly shown) [Compound 7], which EC50 is on record?
A: < 100 nM

Q: For `O=C(Nc1ccc(C2S/C(=N\c3cccc(F)c3)N(Cc3ccco3)C2=O)cc1)[C@@H]1CCC(=O)N1C(=O)OCc1ccccc1` (stereo partly shown) [Compound 8], which EC50 is on record?
A: 100 to 1000 nM

Q: For `C[C@H](NC(=O)OCc1ccccc1)C(=O)Nc1ccc(C2S/C(=N\c3ccc(N4CCOCC4)cc3)N(Cc3ccco3)C2=O)cc1` (stereo partly shown) [Compound 10], which EC50 is on record?
A: < 100 nM

Q: With `O=C(Nc1ccc(C2S/C(=N\c3cccc4ccncc34)N(Cc3ccco3)C2=O)cc1)[C@@H]1CCCN1C(=O)OCc1ccccc1` (stereo partly shown) [Compound 11] as the compound, how does the EC50 read?
A: < 100 nM

Q: Which EC50 does the source give for `C[C@H](NC(=O)OCc1ccccc1)C(=O)Nc1ccc(C2S/C(=N\c3cccc4ccncc34)N(Cc3ccco3)C2=O)cc1` (stereo partly shown) [Compound 12] here?
A: < 100 nM

Q: How did the EC50 turn out when `COc1cccc(CN2C(=O)C(c3ccc(NC(=O)[C@@H]4CCCN4C(=O)OCc4ccccc4)cc3)S/C2=N\c2cccc(F)c2)c1` (stereo partly shown) [Compound 13] was run?
A: 100 to 1000 nM

Q: For `O=C(Nc1ccc(C2S/C(=N\c3cccc(F)c3)N(CC3CCCO3)C2=O)cc1)[C@@H]1CCCN1C(=O)OCc1ccccc1` (stereo partly shown) [Compound 14], which EC50 is on record?
A: < 100 nM

Q: Which EC50 does the source give for `O=C(Nc1ccc(C2S/C(=N\c3cccc(F)c3)N(Cc3cccnc3)C2=O)cc1)[C@@H]1CCCN1C(=O)OCc1ccccc1` (stereo partly shown) [Compound 15] here?
A: < 100 nM

Q: `O=C(Nc1ccc(C2S/C(=N\c3cccc(F)c3)N(Cc3ccccc3)C2=O)cc1)[C@@H]1CCCN1C(=O)OCc1ccccc1` (stereo partly shown) [Compound 16] was tested. Which EC50 did it give?
A: 100 to 1000 nM

Q: `O=C(Nc1ccc(C2S/C(=N\c3cccc(F)c3)N(CCOc3ccccc3)C2=O)cc1)[C@@H]1CCCN1C(=O)OCc1ccccc1` (stereo partly shown) [Compound 17] was tested. Which EC50 did it give?
A: 1000 to 5000 nM

Q: `O=C(Nc1ccc(C2S/C(=N\c3cccc(F)c3)N(Cc3ccc(OC(F)(F)F)cc3)C2=O)cc1)[C@@H]1CCCN1C(=O)OCc1ccccc1` (stereo partly shown) [Compound 19] was tested. Which EC50 did it give?
A: 1000 to 5000 nM

Q: For `O=C(Nc1ccc(C2S/C(=N\c3cccc(F)c3)N(CCc3cccs3)C2=O)cc1)[C@@H]1CCCN1C(=O)OCc1ccccc1` (stereo partly shown) [Compound 20], which EC50 is on record?
A: 1000 to 5000 nM

Q: How did the EC50 turn out when `C[C@H](NC(=O)OCc1ccccc1)C(=O)Nc1ccc(C2S/C(=N\c3cccc(F)c3)N(CCOc3ccccc3)C2=O)cc1` (stereo partly shown) [Compound 21] was run?
A: 1000 to 5000 nM

Q: Which EC50 does the source give for `C[C@H](NC(=O)OCc1ccccc1)C(=O)Nc1ccc(C2S/C(=N\c3cccc(F)c3)N(Cc3ccc(OC(F)(F)F)cc3)C2=O)cc1` (stereo partly shown) [Compound 23] here?
A: 1000 to 5000 nM

Q: How did the EC50 turn out when `C[C@H](NC(=O)OCc1ccccc1)C(=O)Nc1ccc(C2S/C(=N\c3cccc(F)c3)N(CCc3cccs3)C2=O)cc1` (stereo partly shown) [Compound 24] was run?
A: 100 to 1000 nM

Q: Which EC50 does the source give for `COc1cccc(CN2C(=O)C(c3ccc(NC(=O)[C@H](C)NC(=O)OCc4ccccc4)cc3)S/C2=N\c2cccc(F)c2)c1` (stereo partly shown) [Compound 25] here?
A: 100 to 1000 nM

Q: `C[C@H](NC(=O)OCc1ccccc1)C(=O)Nc1ccc(C2S/C(=N\c3cccc(F)c3)N(CC3CCCO3)C2=O)cc1` (stereo partly shown) [Compound 26] was tested. Which EC50 did it give?
A: 100 to 1000 nM

Q: `C[C@H](NC(=O)OCc1ccccc1)C(=O)Nc1ccc(C2S/C(=N\c3cccc(F)c3)N(Cc3cccnc3)C2=O)cc1` (stereo partly shown) [Compound 27] was tested. Which EC50 did it give?
A: < 100 nM

Q: How did the EC50 turn out when `COc1ccc(CCN2C(=O)C(c3ccc(NC(=O)[C@H](C)NC(=O)OCc4ccccc4)cc3)S/C2=N\c2cccc(F)c2)cc1OC` (stereo partly shown) [Compound 28] was run?
A: 1000 to 5000 nM

Q: Which EC50 does the source give for `C[C@H](NC(=O)OCc1ccccc1)C(=O)Nc1ccc(C2S/C(=N\c3cccc(F)c3)N(Cc3ccc(F)c(F)c3F)C2=O)cc1` (stereo partly shown) [Compound 29] here?
A: 1000 to 5000 nM

Q: How did the EC50 turn out when `COc1ccc(CCN2C(=O)C(c3ccc(NC(=O)[C@@H]4CCCN4C(=O)OCc4ccccc4)cc3)S/C2=N\c2cccc(F)c2)cc1OC` (stereo partly shown) [Compound 30] was run?
A: 1000 to 5000 nM

Q: With `C[C@H](NC(=O)OCc1ccccc1)C(=O)Nc1cccc(C2S/C(=N\c3cccc(F)c3)N(Cc3ccco3)C2=O)c1` (stereo partly shown) [Compound 32] as the compound, how does the EC50 read?
A: 1000 to 5000 nM

Q: Which EC50 does the source give for `O=C(Nc1cccc(C2S/C(=N\c3cccc(F)c3)N(Cc3ccco3)C2=O)c1)[C@@H]1CCCN1C(=O)OCc1ccccc1` (stereo partly shown) [Compound 33] here?
A: 1000 to 5000 nM

Q: Which EC50 does the source give for `CCc1cccc(/N=C2\SC(c3ccc(NC(=O)[C@@H]4CCCN4C(=O)OCc4ccccc4)cc3)C(=O)N2Cc2ccco2)c1` (stereo partly shown) [Compound 36] here?
A: 1000 to 5000 nM

Q: How did the EC50 turn out when `CCc1cccc(/N=C2\SC(c3ccc(NC(=O)[C@H](C)NC(=O)OCc4ccccc4)cc3)C(=O)N2Cc2ccco2)c1` (stereo partly shown) [Compound 37] was run?
A: 1000 to 5000 nM

Q: `O=C(Nc1ccc(C2S/C(=N\c3ccc4c(c3)CCC4)N(Cc3ccco3)C2=O)cc1)[C@@H]1CCCN1C(=O)OCc1ccccc1` (stereo partly shown) [Compound 38] was tested. Which EC50 did it give?
A: 100 to 1000 nM

Q: How did the EC50 turn out when `C[C@H](NC(=O)OCc1ccccc1)C(=O)Nc1ccc(C2S/C(=N\c3ccc4c(c3)CCC4)N(Cc3ccco3)C2=O)cc1` (stereo partly shown) [Compound 39] was run?
A: 1000 to 5000 nM

Q: For `Cc1ccc(/N=C2\SC(c3ccc(NC(=O)[C@H](C)NC(=O)OCc4ccccc4)cc3)C(=O)N2Cc2ccco2)c(Cl)c1` (stereo partly shown) [Compound 41], which EC50 is on record?
A: 1000 to 5000 nM

Q: Which EC50 does the source give for `O=C(Nc1ccc(C2S/C(=N\c3cc(F)cc(F)c3)N(Cc3ccco3)C2=O)cc1)[C@@H]1CCCN1C(=O)OCc1ccccc1` (stereo partly shown) [Compound 42] here?
A: 100 to 1000 nM

Q: For `C[C@H](NC(=O)OCc1ccccc1)C(=O)Nc1ccc(C2S/C(=N\c3cc(F)cc(F)c3)N(Cc3ccco3)C2=O)cc1` (stereo partly shown) [Compound 43], which EC50 is on record?
A: 100 to 1000 nM

Q: Which EC50 does the source give for `COc1ccc(/N=C2\SC(c3ccc(NC(=O)[C@@H]4CCCN4C(=O)OCc4ccccc4)cc3)C(=O)N2Cc2ccco2)cn1` (stereo partly shown) [Compound 44] here?
A: 100 to 1000 nM

Q: For `CCC(C)c1ccc(/N=C2\SC(c3ccc(NC(=O)[C@@H]4CCCN4C(=O)OCc4ccccc4)cc3)C(=O)N2Cc2ccco2)cc1` (stereo partly shown) [Compound 45], which EC50 is on record?
A: 100 to 1000 nM

Q: Which EC50 does the source give for `CCC(C)c1ccc(/N=C2\SC(c3ccc(NC(=O)[C@H](C)NC(=O)OCc4ccccc4)cc3)C(=O)N2Cc2ccco2)cc1` (stereo partly shown) [Compound 46] here?
A: 1000 to 5000 nM

Q: With `N#Cc1cccc(/N=C2\SC(c3ccc(NC(=O)[C@@H]4CCCN4C(=O)OCc4ccccc4)cc3)C(=O)N2Cc2ccco2)c1` (stereo partly shown) [Compound 47] as the compound, how does the EC50 read?
A: < 100 nM

Q: `COc1ccc(C(F)(F)F)cc1/N=C1\SC(c2ccc(NC(=O)[C@@H]3CCCN3C(=O)OCc3ccccc3)cc2)C(=O)N1Cc1ccco1` (stereo partly shown) [Compound 49] was tested. Which EC50 did it give?
A: 100 to 1000 nM

Q: For `COc1ccc(C(F)(F)F)cc1/N=C1\SC(c2ccc(NC(=O)[C@H](C)NC(=O)OCc3ccccc3)cc2)C(=O)N1Cc1ccco1` (stereo partly shown) [Compound 50], which EC50 is on record?
A: 100 to 1000 nM

Q: For `O=C(Nc1ccc(C2S/C(=N\c3ccc(F)c(Cl)c3)N(Cc3ccco3)C2=O)cc1)[C@@H]1CCCN1C(=O)OCc1ccccc1` (stereo partly shown) [Compound 51], which EC50 is on record?
A: 1000 to 5000 nM

Q: Which EC50 does the source give for `C[C@H](NC(=O)OCc1ccccc1)C(=O)Nc1ccc(C2S/C(=N\c3ccc(F)c(Cl)c3)N(Cc3ccco3)C2=O)cc1` (stereo partly shown) [Compound 52] here?
A: 1000 to 5000 nM
